Structures are written as SMILES. Where two headings read alike, the source gives them in different places. Where only a bound is given, the exact number is not on record here.

EC50 and inhibition data for 30 compounds are collected here from US20240124444A1 (Celgene Corporation, priority 2020, published 2024).

For this test, the system named is C. parvum strain UGA1. The experiment in a line: C. parvum growth inhibition assay (Nluc luminescence in HCT-8 cells). To be noted: Cryptosporidium parvum; for EC50: HCT-8, 48 h, C. parvum growth inhibition in HCT-8 cells, 48 hours, 6 concentrations 10-0.04 μM; for inhibition at 1 µM / inhibition at 10 µM: HCT-8; for inhibition at 1 µM: read-out: % inh @ 1 uM C. parvum; for inhibition at 10 µM: read-out: % inh @ 10 uM C. parvum. Format: cell-based, Cryptosporidium parvum.

Setting [1] is: single point inhibition at 1 uM.
[2] abbreviates: single point inhibition at 10 uM.
Setting [3] is: single point inhibition @ 10 uM.

A word on the EC50: it is the concentration giving half of the maximal effect. A high value points to lower potency in that assay. As to `CCn1c(-c2cc(C)ncn2)cc2cnc(NC(=O)C3CC3)cc21` [Example 122, N-(1-ethyl-2-(6-methylpyrimidin-4-yl)-1H-pyrrolo[3,2-c]pyridin-6-yl)cyclopropanecarboxamide], the EC50 was greater than 1 µM.

As for `O=C(Nc1cc2[nH]c(-c3nc[nH]n3)cc2cn1)C1CC1` [Example 201, N-(2-(1H-1,2,4-triazol-3-yl)-1H-pyrrolo[3,2-c]pyridin-6-yl)cyclopropanecarboxamide], the inhibition at 1 µM under setting [1] was in the range of 0 to 33%. The inhibition at 10 µM under setting [2] lay within 67 to 100%.

In the case of `O=C(Nc1cc2[nH]c(-c3ccnc(OCCCF)n3)cc2cn1)c1cnn(CC2CCCO2)c1` (stereo in doubt) [Example 171, (S)-N-(2-(2-(3-fluoropropoxy)pyrimidin-4-yl)-1H-pyrrolo[3,2-c]pyridin-6-yl)-1-((tetrahydrofuran-2-yl)methyl)-1H-pyrazole-4-carboxamide], the inhibition at 1 µM (single point inhibition @ 1 uM) lay in the range of 0 to 33%. For the same compound, the inhibition at 10 µM under setting [3] is 67 to 100%.

Regarding `N#Cc1cc2cnc(Nc3cccc(-c4nc[nH]n4)c3)cc2[nH]1` [Example 145, 6-(3-(1H-1,2,4-triazol-3-yl)phenylamino)-1H-pyrrolo[3,2-c]pyridine-2-carbonitrile], the inhibition at 1 µM (single point inhibition @ 1 uM) is 0 to 33%. Besides, under setting [3], the inhibition at 10 µM is 67 to 100%.

For the compound `COc1nccc(-c2cc3cnc(NC(=O)C4C5CCCC54)cc3[nH]2)n1` (stereo not shown) [Example 176, N-(2-(2-methoxypyrimidin-4-yl)-1H-pyrrolo[3,2-c]pyridin-6-yl)bicyclo[3.1.0]hexane-6-carboxamide], the inhibition at 1 µM (single point inhibition @ 1 uM) was in the range of 0 to 33%. For the same compound, the inhibition at 10 µM under setting [3] was 67 to 100%.

For `Cn1cc(C(=O)Nc2cc3[nH]c(-c4cnc[nH]4)cc3cn2)cn1` [Example 82, N-(2-(1H-imidazol-5-yl)-1H-pyrrolo[3,2-c]pyridin-6-yl)-1-methyl-1H-pyrazole-4-carboxamide], the 50% effective concentration (EC50) was greater than 1 µM. The inhibition at 1 µM (single point inhibition @ 1 uM) fell in the range of 0 to 33%. For the same compound, the inhibition at 10 µM under setting [3] fell in the range of 33 to 66%.

Consider `CCOc1nccc(-c2cc3cnc(NC(=O)[C@H]4C[C@H](O)C4)cc3[nH]2)n1` [Example 253, (1r,3r)-N-(2-(2-ethoxypyrimidin-4-yl)-1H-pyrrolo[3,2-c]pyridin-6-yl)-3-hydroxycyclobutanecarboxamide], for which the inhibition at 1 µM under setting [1] lay in the range of 0 to 33%. Also, the inhibition at 10 µM under setting [2] was in the range of 0 to 33%.

For the compound `Cc1cc(-c2cc3cnc(N(C)C4CCOCC4)cc3[nH]2)ccn1` [Example 114, N-methyl-2-(2-methylpyridin-4-yl)-N-(tetrahydro-2H-pyran-4-yl)-1H-pyrrolo[3,2-c]pyridin-6-amine], the EC50 is greater than 1 µM.

On to `Cn1cc(C(=O)Nc2cc3[nH]c(-c4ccnc(C(F)(F)F)n4)cc3cn2)cn1` [Example 287, 1-methyl-N-(2-(2-(trifluoromethyl)pyrimidin-4-yl)-1H-pyrrolo[3,2-c]pyridin-6-yl)-1H-pyrazole-4-carboxamide], for which the inhibition at 1 µM under setting [1] is 0 to 33%. The inhibition at 10 µM under setting [2] lay in the range of 0 to 33%.

As to `Cc1cc(-c2cc3cnc(NC(=O)C4CC4)cc3n2CCN(C)C)ncn1` [Example 124, N-(1-(2-(dimethylamino)ethyl)-2-(6-methylpyrimidin-4-yl)-1H-pyrrolo[3,2-c]pyridin-6-yl)cyclopropanecarboxamide], the 50% effective concentration (EC50) was greater than 1 µM.

In the case of `CC(C)n1c(-c2ccnc(NCC(F)(F)F)n2)cc2cnc(NC(=O)c3cnn(C)c3)cc21` [Example 338, N-(1-isopropyl-2-(2-(2,2,2-trifluoroethylamino)pyrimidin-4-yl)-1H-pyrrolo[3,2-c]pyridin-6-yl)-1-methyl-1H-pyrazole-4-carboxamide], the inhibition at 1 µM under setting [1] was 0 to 33%. Moreover, the inhibition at 10 µM under setting [2] lay in the range of 0 to 33%.

Regarding `Cc1cc(-c2cc3cnc(Nc4cccc(-c5nc[nH]n5)c4)cc3[nH]2)cc(N)n1` [Example 150, N-(3-(1H-1,2,4-triazol-3-yl)phenyl)-2-(2-amino-6-methylpyridin-4-yl)-1H-pyrrolo[3,2-c]pyridin-6-amine], under “single point inhibition @ 1 uM”, the inhibition at 1 µM lay within 0 to 33%. For the same compound, the inhibition at 10 µM under setting [3] was in the range of 67 to 100%.

Take `Cc1cc(-c2cc3cnc(NC(=O)C4CC(C)(O)C4)cc3[nH]2)ccn1` (stereo not shown) [Example 202, 3-hydroxy-3-methyl-N-(2-(2-methylpyridin-4-yl)-1H-pyrrolo[3,2-c]pyridin-6-yl)cyclobutanecarboxamide]: the inhibition at 1 µM under setting [1] fell in the range of 0 to 33%. In addition, the inhibition at 10 µM under setting [2] is 67 to 100%.

In the case of `O=C(Nc1cc2[nH]c(-c3nc(C(F)(F)F)cs3)cc2cn1)C1CC1` [Example 104, N-(2-(4-(trifluoromethyl)thiazol-2-yl)-1H-pyrrolo[3,2-c]pyridin-6-yl)cyclopropanecarboxamide], the EC50 is greater than 1 µM.

With `CC(C)(O)c1cc(-c2cc3cnc(Nc4cccc(-c5nc[nH]n5)c4)cc3[nH]2)ccn1` [Example 215, 2-(4-(6-(3-(1H-1,2,4-triazol-3-yl)phenylamino)-1H-pyrrolo[3,2-c]pyridin-2-yl)pyridin-2-yl)propan-2-ol], under setting [1], the inhibition at 1 µM was 33 to 66%. Besides, the inhibition at 10 µM under setting [2] was in the range of 67 to 100%.

For `c1cc(Nc2cc3[nH]c(-c4cccnc4)cc3cn2)cc(-c2nc[nH]n2)c1` [Example 272, N-(3-(1H-1,2,4-triazol-3-yl)phenyl)-2-(pyridin-3-yl)-1H-pyrrolo[3,2-c]pyridin-6-amine], the inhibition at 1 µM under setting [1] lay within 0 to 33%. Besides, the inhibition at 10 µM under setting [2] was in the range of 0 to 33%.

Consider `COc1nccc(-c2cc3cnc(NC(=O)c4cn(CC5CCOC5)nc4C)cc3[nH]2)n1` (stereo in doubt) [Example 326, (S)-N-(2-(2-methoxypyrimidin-4-yl)-1H-pyrrolo[3,2-c]pyridin-6-yl)-3-methyl-1-((tetrahydrofuran-3-yl)methyl)-1H-pyrazole-4-carboxamide], for which, under setting [1], the inhibition at 1 µM fell in the range of 0 to 33%. Moreover, the inhibition at 10 µM under setting [2] is 0 to 33%.

As to `Cn1cncc1-c1cc2cnc(Nc3ccc(F)cc3)cc2[nH]1` [Example 229, N-(4-fluorophenyl)-2-(1-methyl-1H-imidazol-5-yl)-1H-pyrrolo[3,2-c]pyridin-6-amine], under setting [1], the inhibition at 1 µM lay in the range of 33 to 66%. In addition, the inhibition at 10 µM under setting [2] was in the range of 33 to 66%.

For the compound `O=C(Nc1cc2[nH]c(-c3ccnc(OCCC(F)(F)F)n3)cc2cn1)c1cnn([C@H]2CC[C@H](O)CC2)c1` [Example 216, 1-((1r,4r)-4-hydroxycyclohexyl)-N-(2-(2-(3,3,3-trifluoropropoxy)pyrimidin-4-yl)-1H-pyrrolo[3,2-c]pyridin-6-yl)-1H-pyrazole-4-carboxamide], under setting [1], the inhibition at 1 µM is 0 to 33%. Besides, the inhibition at 10 µM under setting [2] was in the range of 67 to 100%.

The compound `Cc1nccc(-c2cc3cnc(NC(=O)C4CC4)cc3n2C)n1` [Example 100, N-(1-methyl-2-(2-methylpyrimidin-4-yl)-1H-pyrrolo[3,2-c]pyridin-6-yl)cyclopropanecarboxamide] returned an EC50 greater than 1 µM.

The compound `Cn1cnc(-c2cc3cnc(NC(=O)C4CC4)cc3n2C)n1` [Example 57, N-(1-methyl-2-(1-methyl-1H-1,2,4-triazol-3-yl)-1H-pyrrolo[3,2-c]pyridin-6-yl)cyclopropanecarboxamide] gave an EC50 greater than 1 µM.

As for `CCCOc1nccc(-c2cc3cnc(NC(=O)c4cnn(C)c4)cc3[nH]2)n1` [Example 312, 1-methyl-N-(2-(2-propoxypyrimidin-4-yl)-1H-pyrrolo[3,2-c]pyridin-6-yl)-1H-pyrazole-4-carboxamide], under setting [1], the inhibition at 1 µM is 0 to 33%. The inhibition at 10 µM under setting [2] lay within 0 to 33%.

The compound `CN(CC(F)(F)F)c1nccc(-c2cc3cnc(NC4CCOCC4)cc3n2C)n1` [Example 30, 1-Methyl-2-(2-(methyl(2,2,2-trifluoroethyl)amino)pyrimidin-4-yl)-N-(tetrahydro-2h-pyran-4-yl)-1H-pyrrolo[3,2-c]pyridin-6-amine] gave a concentration giving a half-maximal response (EC50) greater than 1 µM. For the same compound, under “single point inhibition @ 1 uM”, the inhibition at 1 µM fell in the range of 0 to 33%.

With `Cn1cc(C(=O)Nc2cc3[nH]c(C4CCOCC4)cc3cn2)cn1` [Example 259, 1-methyl-N-(2-(tetrahydro-2H-pyran-4-yl)-1H-pyrrolo[3,2-c]pyridin-6-yl)-1H-pyrazole-4-carboxamide], under setting [1], the inhibition at 1 µM lay within 0 to 33%. Moreover, the inhibition at 10 µM under setting [2] lay in the range of 0 to 33%.

In the case of `O=C(CC1CCOCC1)Nc1cc2[nH]c(-c3ccncc3)cc2cn1` [Example 143, N-(2-(pyridin-4-yl)-1H-pyrrolo[3,2-c]pyridin-6-yl)-2-(tetrahydro-2H-pyran-4-yl)acetamide], the inhibition at 1 µM (single point inhibition @ 1 uM) is 0 to 33%. The inhibition at 10 µM under setting [3] was 67 to 100%.

With `CNC(=O)Nc1cc2[nH]c(-c3ccnc(C)c3)cc2cn1` [Example 214, 1-methyl-3-(2-(2-methylpyridin-4-yl)-1H-pyrrolo[3,2-c]pyridin-6-yl)urea], the inhibition at 1 µM under setting [1] fell in the range of 0 to 33%. Under setting [2], the inhibition at 10 µM was in the range of 67 to 100%.

Consider `N#Cc1cc2cnc(NC(=O)C3CC3)cc2[nH]1` [Example 180, N-(2-cyano-1H-pyrrolo[3,2-c]pyridin-6-yl)cyclopropanecarboxamide], for which the inhibition at 1 µM (single point inhibition @ 1 uM) fell in the range of 0 to 33%. In addition, the inhibition at 10 µM under setting [3] was in the range of 67 to 100%.

In turn, `Cc1cc(-c2cc3cnc(NC(=O)c4cnn(C5CCCC5)c4)cc3[nH]2)ccn1` [Example 84, 1-cyclopentyl-N-(2-(2-methylpyridin-4-yl)-1H-pyrrolo[3,2-c]pyridin-6-yl)-1H-pyrazole-4-carboxamide] showed a half-maximal effective concentration (EC50) greater than 1 µM. The inhibition at 1 µM (single point inhibition @ 1 uM) was in the range of 67 to 100%. In addition, under setting [3], the inhibition at 10 µM lay in the range of 0 to 33%.

For the compound `Cn1cc(C(=O)Nc2cc3c(cn2)cc(C#N)n3C)cn1` [Example 279, N-(2-cyano-1-methyl-1H-pyrrolo[3,2-c]pyridin-6-yl)-1-methyl-1H-pyrazole-4-carboxamide], under setting [1], the inhibition at 1 µM is 0 to 33%. For the same compound, the inhibition at 10 µM under setting [2] was 0 to 33%.

`Cc1cc(-c2[nH]c3cc(NC4CCOCC4)ncc3c2C)ccn1` [Example 362, 3-methyl-2-(2-methylpyridin-4-yl)-N-(tetrahydro-2H-pyran-4-yl)-1H-pyrrolo[3,2-c]pyridin-6-amine] showed a concentration giving a half-maximal response (EC50) greater than 1 µM.
